The results in this text go back to ChEMBL document CHEMBL3638666, “Selective kinase inhibitors” (2013).

Test [1] has as its target Tyrosine-protein kinase JAK2 (Homo sapiens, UniProt O60674). Kind of test: (§1) In Vitro Kinase Enzyme Assay: In vitro kinase enzyme assay using Jak3, Jak2, Jak1, and Tyk2.
In test [2] the target is Non-receptor tyrosine-protein kinase TYK2 (Homo sapiens, UniProt P29597). The test is described as §1.
Test [3] has as its target T1, Tyrosine-protein kinase JAK3 (Homo sapiens, UniProt P52333).
T1 sequence (P52333 whole entry): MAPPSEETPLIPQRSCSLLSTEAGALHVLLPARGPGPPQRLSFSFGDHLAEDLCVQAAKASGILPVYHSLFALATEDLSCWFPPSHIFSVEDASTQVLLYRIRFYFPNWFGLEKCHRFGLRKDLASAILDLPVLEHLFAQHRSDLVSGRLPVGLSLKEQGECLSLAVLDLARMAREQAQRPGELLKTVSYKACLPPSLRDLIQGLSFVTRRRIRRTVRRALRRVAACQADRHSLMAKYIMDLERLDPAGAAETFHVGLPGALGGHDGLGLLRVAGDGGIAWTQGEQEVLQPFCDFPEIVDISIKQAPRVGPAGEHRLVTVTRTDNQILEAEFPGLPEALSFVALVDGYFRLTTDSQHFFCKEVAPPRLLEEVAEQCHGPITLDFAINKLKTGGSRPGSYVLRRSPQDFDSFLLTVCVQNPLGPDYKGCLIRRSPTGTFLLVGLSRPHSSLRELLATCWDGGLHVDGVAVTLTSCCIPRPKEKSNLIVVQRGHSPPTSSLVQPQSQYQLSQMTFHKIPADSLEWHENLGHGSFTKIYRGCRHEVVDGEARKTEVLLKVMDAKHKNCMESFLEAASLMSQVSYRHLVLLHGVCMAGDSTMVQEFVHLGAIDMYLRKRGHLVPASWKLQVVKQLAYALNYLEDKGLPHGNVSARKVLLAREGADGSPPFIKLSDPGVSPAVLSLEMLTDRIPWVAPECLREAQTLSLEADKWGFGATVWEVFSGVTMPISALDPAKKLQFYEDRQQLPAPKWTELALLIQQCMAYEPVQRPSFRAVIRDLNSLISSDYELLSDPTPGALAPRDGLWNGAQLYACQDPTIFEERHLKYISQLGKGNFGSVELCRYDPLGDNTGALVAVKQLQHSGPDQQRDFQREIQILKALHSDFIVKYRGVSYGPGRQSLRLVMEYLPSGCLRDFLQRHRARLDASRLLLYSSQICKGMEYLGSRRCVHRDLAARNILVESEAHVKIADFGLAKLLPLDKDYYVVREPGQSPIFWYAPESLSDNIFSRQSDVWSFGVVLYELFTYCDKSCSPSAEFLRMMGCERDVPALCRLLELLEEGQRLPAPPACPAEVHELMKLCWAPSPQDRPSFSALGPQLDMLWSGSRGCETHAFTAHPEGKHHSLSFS
Described as §1.

The target in test [4] is Tyrosine-protein kinase JAK1 (Homo sapiens, UniProt P23458). The test is described as §1.

Molecules are shown by their SMILES.

Tyrosine-protein kinase JAK2, sequence (O60674 whole entry): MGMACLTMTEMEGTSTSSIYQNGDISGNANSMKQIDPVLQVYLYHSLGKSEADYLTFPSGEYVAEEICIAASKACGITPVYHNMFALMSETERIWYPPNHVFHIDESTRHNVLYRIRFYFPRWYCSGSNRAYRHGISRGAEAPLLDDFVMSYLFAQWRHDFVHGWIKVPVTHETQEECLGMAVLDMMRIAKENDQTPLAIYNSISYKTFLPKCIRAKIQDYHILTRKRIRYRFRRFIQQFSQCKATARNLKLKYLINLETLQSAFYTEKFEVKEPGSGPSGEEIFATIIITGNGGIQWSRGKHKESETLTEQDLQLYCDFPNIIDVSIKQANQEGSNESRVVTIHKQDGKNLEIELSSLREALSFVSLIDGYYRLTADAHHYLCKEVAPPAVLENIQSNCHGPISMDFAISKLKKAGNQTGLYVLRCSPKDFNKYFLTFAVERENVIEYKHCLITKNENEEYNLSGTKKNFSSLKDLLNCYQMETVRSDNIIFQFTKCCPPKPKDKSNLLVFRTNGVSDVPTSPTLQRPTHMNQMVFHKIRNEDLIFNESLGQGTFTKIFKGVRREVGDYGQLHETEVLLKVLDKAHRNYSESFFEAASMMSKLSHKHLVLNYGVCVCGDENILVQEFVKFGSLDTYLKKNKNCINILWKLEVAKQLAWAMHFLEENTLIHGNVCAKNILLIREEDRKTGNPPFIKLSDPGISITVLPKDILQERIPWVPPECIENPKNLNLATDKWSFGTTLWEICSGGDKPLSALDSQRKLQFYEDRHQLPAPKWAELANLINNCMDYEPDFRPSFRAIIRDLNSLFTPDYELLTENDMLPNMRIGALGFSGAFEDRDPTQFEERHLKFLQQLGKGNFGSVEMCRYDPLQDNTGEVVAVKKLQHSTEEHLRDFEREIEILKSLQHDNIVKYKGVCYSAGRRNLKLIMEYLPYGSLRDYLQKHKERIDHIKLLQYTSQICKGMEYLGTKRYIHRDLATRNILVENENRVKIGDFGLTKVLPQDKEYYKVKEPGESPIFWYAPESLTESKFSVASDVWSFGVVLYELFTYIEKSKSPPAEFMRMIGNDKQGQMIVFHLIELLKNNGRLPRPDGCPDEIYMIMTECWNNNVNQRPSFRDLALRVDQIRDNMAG
Tyrosine-protein kinase JAK1, sequence (P23458 whole entry): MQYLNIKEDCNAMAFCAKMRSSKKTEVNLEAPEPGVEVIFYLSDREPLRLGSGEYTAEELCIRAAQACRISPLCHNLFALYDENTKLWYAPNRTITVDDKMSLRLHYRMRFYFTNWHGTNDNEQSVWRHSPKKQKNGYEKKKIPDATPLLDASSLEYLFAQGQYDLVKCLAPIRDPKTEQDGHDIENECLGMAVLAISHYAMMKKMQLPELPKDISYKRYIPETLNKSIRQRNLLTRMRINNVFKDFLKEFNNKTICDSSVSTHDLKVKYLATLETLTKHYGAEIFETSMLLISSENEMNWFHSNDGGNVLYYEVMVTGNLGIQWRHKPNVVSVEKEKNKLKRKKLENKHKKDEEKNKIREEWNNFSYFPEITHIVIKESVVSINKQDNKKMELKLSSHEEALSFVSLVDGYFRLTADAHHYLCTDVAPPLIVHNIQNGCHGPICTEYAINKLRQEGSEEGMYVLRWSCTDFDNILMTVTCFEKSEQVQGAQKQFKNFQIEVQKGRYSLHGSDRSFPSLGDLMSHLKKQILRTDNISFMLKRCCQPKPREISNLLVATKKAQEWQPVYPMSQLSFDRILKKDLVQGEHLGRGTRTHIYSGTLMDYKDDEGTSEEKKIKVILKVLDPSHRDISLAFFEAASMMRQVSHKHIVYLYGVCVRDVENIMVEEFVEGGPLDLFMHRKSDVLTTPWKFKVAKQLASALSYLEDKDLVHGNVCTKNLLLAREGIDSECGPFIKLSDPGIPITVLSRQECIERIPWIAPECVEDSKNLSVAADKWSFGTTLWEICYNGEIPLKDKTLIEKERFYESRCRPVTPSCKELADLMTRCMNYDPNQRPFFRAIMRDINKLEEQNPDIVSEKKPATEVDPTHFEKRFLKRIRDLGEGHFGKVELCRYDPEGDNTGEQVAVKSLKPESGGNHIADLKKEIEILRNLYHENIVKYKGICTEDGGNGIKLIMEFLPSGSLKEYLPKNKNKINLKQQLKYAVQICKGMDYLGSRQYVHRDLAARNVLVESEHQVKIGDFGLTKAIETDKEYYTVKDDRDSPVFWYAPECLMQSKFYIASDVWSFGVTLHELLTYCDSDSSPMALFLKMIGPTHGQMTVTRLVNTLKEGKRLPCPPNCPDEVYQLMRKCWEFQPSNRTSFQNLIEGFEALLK
Non-receptor tyrosine-protein kinase TYK2, sequence (P29597 whole entry): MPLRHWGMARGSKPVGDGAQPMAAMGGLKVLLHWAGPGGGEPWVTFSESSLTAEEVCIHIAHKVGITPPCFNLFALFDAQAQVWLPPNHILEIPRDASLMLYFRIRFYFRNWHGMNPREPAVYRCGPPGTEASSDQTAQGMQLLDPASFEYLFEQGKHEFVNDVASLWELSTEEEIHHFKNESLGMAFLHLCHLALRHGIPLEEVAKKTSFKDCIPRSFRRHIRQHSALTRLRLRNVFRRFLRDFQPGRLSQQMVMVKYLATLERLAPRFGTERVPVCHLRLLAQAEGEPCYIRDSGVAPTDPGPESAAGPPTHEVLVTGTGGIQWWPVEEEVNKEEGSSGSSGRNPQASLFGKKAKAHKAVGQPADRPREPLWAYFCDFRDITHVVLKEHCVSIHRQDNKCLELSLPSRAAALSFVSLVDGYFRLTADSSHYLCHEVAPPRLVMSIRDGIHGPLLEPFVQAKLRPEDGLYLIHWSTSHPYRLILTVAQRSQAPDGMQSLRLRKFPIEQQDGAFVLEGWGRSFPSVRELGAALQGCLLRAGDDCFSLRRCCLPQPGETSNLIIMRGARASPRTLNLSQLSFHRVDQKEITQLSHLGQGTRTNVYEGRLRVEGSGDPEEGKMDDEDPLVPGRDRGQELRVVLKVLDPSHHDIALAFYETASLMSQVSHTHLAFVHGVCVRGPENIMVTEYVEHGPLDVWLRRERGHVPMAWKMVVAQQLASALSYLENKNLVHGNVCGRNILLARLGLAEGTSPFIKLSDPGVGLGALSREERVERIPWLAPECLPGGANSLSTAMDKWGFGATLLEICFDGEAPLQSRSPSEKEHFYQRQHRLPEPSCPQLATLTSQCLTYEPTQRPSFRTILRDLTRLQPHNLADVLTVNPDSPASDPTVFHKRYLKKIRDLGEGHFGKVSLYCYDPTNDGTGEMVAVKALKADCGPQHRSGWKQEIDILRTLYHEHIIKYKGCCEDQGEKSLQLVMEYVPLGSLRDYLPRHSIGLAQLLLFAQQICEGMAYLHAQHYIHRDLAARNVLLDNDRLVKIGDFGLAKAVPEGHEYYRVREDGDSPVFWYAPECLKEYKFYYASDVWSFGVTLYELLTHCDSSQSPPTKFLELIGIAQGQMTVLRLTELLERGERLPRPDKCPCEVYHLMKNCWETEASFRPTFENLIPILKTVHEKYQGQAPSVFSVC

As for `O=C(CBr)Nc1cccc(-c2cnc3ccccc3n2)c1`, the IC50 was greater than 10 µM in test [1], greater than 10 µM in test [2], 0.0003 µM in test [3] and greater than 10 µM in test [4].
